According to US12202828B2, “Bicyclic heterocycle compounds and their uses in therapy” (ASTEX THERAPEUTICS LIMITED, priority 2013, dated 2025):
Several values for one entry are separate records, joined by “and”; a condition that tells them apart may be missing. Equal values may be shown once. Where a name gives a salt, the structure may show the parent alone. Read-outs that look alike come from different tables or passages of the source.

Tests used:
[1] = system: EVSA-T (human breast carcinoma); assay: Anti-proliferative activity, Alamar Blue assay, EVSA-T; format: cell-based; details: 72 hours compound, read-out: EVSA-T prolif
Method: The method is based on the ability of viable cells to reduce resazurin to its fluorescent product resorufin. For each proliferation assay cells are plated onto 96 well plates and allowed to recover for 16 hours prior to the addition of inhibitor compounds (in 0.1% DMSO v/v) for a further 72 hours.
The anti-proliferative activities of compounds of the invention can be determined by measuring the ability of the compounds to inhibit growth in 3 cancer cell lines: • EVSA-T (human breast carcinoma) DSMZ cat. no.

[2] = biological target: T1, XIAP-Caspase-9 in HEK293-XIAP-Caspase-9 cells (Homo sapiens, UniProt P98170); assay: HEK293-XIAP-Caspase-9 immunoprecipitation (IP) MSD assay; format: cell-based; details: compound 2 h at 37° C.; read-out: HEK293-X-C9 IP
T1 construct: FLAG; expressed in transfected cells
T1 sequence (P98170 whole entry): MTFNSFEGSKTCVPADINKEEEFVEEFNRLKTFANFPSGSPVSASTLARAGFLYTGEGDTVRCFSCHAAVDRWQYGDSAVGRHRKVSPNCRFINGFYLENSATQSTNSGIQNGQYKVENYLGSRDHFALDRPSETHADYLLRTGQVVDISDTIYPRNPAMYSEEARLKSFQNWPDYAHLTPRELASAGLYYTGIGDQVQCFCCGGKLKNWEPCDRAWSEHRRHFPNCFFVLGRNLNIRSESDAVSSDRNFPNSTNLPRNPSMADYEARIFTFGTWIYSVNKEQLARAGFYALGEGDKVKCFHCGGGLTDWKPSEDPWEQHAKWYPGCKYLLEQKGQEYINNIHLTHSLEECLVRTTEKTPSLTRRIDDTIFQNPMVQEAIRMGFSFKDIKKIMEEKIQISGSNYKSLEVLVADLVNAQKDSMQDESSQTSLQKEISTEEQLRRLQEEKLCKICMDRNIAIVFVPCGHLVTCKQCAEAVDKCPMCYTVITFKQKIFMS
Method: Stable HEK293-XIAP-Caspase-9 cells were plated out into 96-well plates [200 μl/well at 1×10^6 cells/mL in cultured complete medium (DMEM+10% FBS+0.5 mg/mL Geneticin (Invitrogen)] and left overnight at 37° C. to recover. Compounds were added to duplicate wells in 0.1% DMSO for 2 h at 37° C. Cells were lysed in 50 μl 1×MSD lysis buffer (1% Triton X-100 in 20 mM Tris·Cl (pH 7.6), 150 mM NaCl including protease inhibitors) for 20 min rocking at room temperature. Streptavidin high bind MSD plate (L15SB-2) were coated with biotinylated anti-FLAG M2 antibody (Sigma F9291) at 25 μl/well with a 5 μg/mL dilution of antibody in PBS for 1 h, shaking; followed by blocking for 1 h with 150 μl 3% BSA/TBST. Cell lysate (25 μl) was added to the 96-well anti-FLAG coated MSD plate and placed on shaker for 4 h at room temperature. […] Plates were washed 4 times with 150 μl TBST, and 150 μl/well 1×MSD read buffer (R92TC-2) added before reading each plate.
EC50 values were determined from dose-response plots using nonlinear least-squares analysis.

[3] = biological target: T2, hERG ion channel (Homo sapiens, UniProt Q12809); assay: Population Patch Clamp (PPC) hERG assay in CHO K1 cells; format: cell-based; details: for IC50: CHO K1 cells stably transfected with hERG
T2 construct: expressed in transfected cells; host or cells: CHO K1
T2 sequence (Q12809 whole entry): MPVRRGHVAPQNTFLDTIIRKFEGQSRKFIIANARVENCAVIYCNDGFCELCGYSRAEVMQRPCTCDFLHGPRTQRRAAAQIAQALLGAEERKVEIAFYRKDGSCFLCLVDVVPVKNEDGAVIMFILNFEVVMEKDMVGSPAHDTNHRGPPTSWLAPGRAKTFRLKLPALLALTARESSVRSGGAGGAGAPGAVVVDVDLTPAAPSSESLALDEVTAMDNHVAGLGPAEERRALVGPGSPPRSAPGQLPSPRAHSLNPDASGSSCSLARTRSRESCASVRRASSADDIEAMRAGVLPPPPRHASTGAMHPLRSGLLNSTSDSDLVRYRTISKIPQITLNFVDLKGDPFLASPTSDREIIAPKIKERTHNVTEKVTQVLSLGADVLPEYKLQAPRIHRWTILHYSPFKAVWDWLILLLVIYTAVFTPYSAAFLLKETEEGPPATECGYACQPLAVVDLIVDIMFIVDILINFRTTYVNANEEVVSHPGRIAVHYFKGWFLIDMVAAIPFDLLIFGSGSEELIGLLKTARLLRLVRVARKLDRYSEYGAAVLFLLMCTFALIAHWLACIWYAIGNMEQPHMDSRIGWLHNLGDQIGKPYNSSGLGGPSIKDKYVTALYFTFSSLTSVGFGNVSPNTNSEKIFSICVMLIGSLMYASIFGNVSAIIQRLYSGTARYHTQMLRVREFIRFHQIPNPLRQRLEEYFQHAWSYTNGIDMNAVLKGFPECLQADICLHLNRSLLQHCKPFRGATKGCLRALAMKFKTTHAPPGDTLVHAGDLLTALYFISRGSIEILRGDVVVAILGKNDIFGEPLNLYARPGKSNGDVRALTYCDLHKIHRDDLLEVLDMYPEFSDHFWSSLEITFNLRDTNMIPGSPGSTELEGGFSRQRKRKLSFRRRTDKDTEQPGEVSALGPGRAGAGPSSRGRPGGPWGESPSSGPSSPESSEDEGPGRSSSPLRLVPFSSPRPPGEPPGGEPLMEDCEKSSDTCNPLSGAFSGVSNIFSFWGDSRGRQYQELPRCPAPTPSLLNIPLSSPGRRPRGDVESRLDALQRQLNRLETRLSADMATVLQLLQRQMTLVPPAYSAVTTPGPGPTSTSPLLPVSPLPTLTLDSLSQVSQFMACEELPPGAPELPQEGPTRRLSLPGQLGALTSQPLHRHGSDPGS
Method: Inhibition of the hERG channel was measured by automated patch clamp assay in CHO K1 cells, stably transfected with the hERG ion channel. PPC measurements were performed using an IonWorks Quattro instrument (Molecular Devices Corporation, Union City, CA) using a 384 well PatchPlate (Molecular Devices Corporation) with 64 apertures per well. Each concentration of test compound was tested in duplicate wells. Amphotericin B was used to obtain electrical access to the cell interior at a final concentration of 200 μg/mL. Human ether-à-gogo related gene (hERG) currents were measured with a prepulse to +40 mV (2 s) from the holding potential of −80 mV, followed by a step to −50 mV (2 s) to elicit the deactivating tail currents, before returning to the holding potential for 1s. Compounds were incubated for 600s between the pre- and post-compound reads. The external recording solution used was 130 mM Na Gluconate, 20 mM NaCl, 4 mM KCl, 1 mM MgCl2, 1.8 mM CaCl2, 10 mM Hepes, 5 mM Glucose, pH to 7.3 with NaOH. All data were filtered for seal quality, seal drop, and current amplitude. The maximum current amplitude of the 3rd pulse tail current was calculated before (Pre) and after (Post) compound addition and the amount of block assessed by dividing the Post-compound current amplitude by the Pre-compound current amplitude.

[4] = system: A375; assay: Combination protocol for apoptosis, A375; format: cell-based, human
Method: Melanoma cell lines were plated out in duplicate wells of 24-well plates at 0.5×10^6 cells/ml the day before treatment to allow them to adhere. After incubation of the cells with compound(s) with or without 1 ng/ml TNF-α (R&D Systems) for 24 h in a CO2 incubator at 37° C., cells were harvested by trypsinisation. The cell pellet from the 24-well plate was resuspended in 100 μl FACS buffer (PBS+1% fetal bovine serum). NucView488 reagent (from Biotium) was added to a final concentration of 2 μM. The plate was incubated in the dark for 30 minutes before measuring fluorescent stained cells in a Guava easyCyte HT cytometer (Millipore). Cleaved caspase-3 staining was recorded in the FL1 channel, with unstained and DMSO control wells being used to set the gated stained and unstained cell populations.
No increase in apoptosis was seen over this time scale with the combination agent shown in the first column of the table alone (with or without TNF-α)—data not shown.

C[C@@H]1CN(CC(=O)N2CC(C)(C)c3nc(CO)c(Cc4cccc(F)c4)cc32)[C@@H](CN2CCOC[C@H]2C)CN1 [Example 15, 1-{6-[(3-Fluorophenyl)methyl]-5-(hydroxymethyl)-3,3-dimethyl-1H,2H,3H-pyrrolo[3,2-b]pyridin-1-yl}-2-[(2R,5R)-5-methyl-2-{[(3R)-3-methylmorpholin-4-yl]methyl}piperazin-1-yl]ethan-1-one dihydrochloride]
EC50 ([1]; dihydrochloride): 7.8 nM
EC50 ([1]; Homo sapiens, EVSA-T, 72 h): < 10 nM
EC50 [2]: 4.9 nM
hERG PPC (PI) ([3]; @ 100 μM): 55% @ 100

CC(=O)Nc1cccc(-n2c(=O)n(C3CC3)c(=O)c3c(Nc4ccc(I)cc4F)n(C)c(=O)c(C)c32)c1 [Trametinib]
% Apoptosis Combination ([4]; agent 0.1 μM with Example 2 0.1 μM + 1 ng/ml TNF-α, 24 h): 52.3%
Fold Increase ([4]; combination (agent 0.1 μM) relative to Example 2 0.1 μM + TNF-α alone): 3.6

C[C@@H]1CN(CC(=O)N2CC(C)(C)c3nc(CO)c(Cc4ccccc4F)cc32)[C@@H](CN2CCOC[C@H]2C)CN1 [Example 4, 1-{6-[(2-Fluorophenyl)methyl]-5-(hydroxymethyl)-3,3-dimethyl-1H,2H,3H-pyrrolo[3,2-b]pyridin-1-yl}-2-[(2R,5R)-5-methyl-2-{[(3R)-3-methylmorpholin-4-yl]methyl}piperazin-1-yl] ethan-1-one dihydrochloride]
EC50 [2]: 2.6 nM
hERG PPC (PI) ([3]; @ 30 μM): 47% @ 30

C[C@@H]1CN(CC(=O)N2CC(C)(C)c3cc(=O)n(Cc4ccc(F)cc4)cc32)[C@@H](CN2CCOC[C@H]2C)CN1 [Example 17, 6-[(4-Fluorophenyl)methyl]-3,3-dimethyl-1-{2-[(2R,5R)-5-methyl-2-{[(3R)-3-methylmorpholin-4-yl]methyl}piperazin-1-yl]acetyl}-1H,2H,3H,5H,6H-pyrrolo[2,3-c]pyridin-5-one dihydrochloride]
EC50 [2]: 28 nM
hERG PPC (PI) ([3]; @ 300 μM): 59% @ 300

CCCCc1cc2c(nc1CO)C(C)(C)CN2C(=O)CN1C[C@@H](C)NC[C@@H]1CN1[C@H](C)COC[C@H]1C [Example 34, 1-[6-Butyl-5-(hydroxymethyl)-3,3-dimethyl-1H,2H,3H-pyrrolo[3,2-b]pyridin-1-yl]-2-[(2R,5R)-2-{[(3R,5R)-3,5-dimethylmorpholin-4-yl]methyl}-5-methylpiperazin-1-yl] ethan-1-one dihydrochloride]
EC50 [2]: 3.8 nM
IC50 [3]: 55000 nM

C[C@@H]1CN(CC(=O)N2CC(C)(C)c3c2cc(Cc2ccc(F)cc2F)c(=O)n3C)[C@@H](CN2CCOC[C@H]2C)CN1 [Example 19, 6-[(2,4-Difluorophenyl)methyl]-3,3,4-trimethyl-1-{2-[(2R,5R)-5-methyl-2-{[(3R)-3-methylmorpholin-4-yl]methyl}piperazin-1-yl]acetyl}-1H,2H,3H,4H,5H-pyrrolo[3,2-b]pyridin-5-one dihydrochloride]
EC50 [2]: 1.2 nM
hERG PPC (PI) ([3]; @ 100 μM): 42% @ 100

COCC(O)c1nc2c(cc1Cc1ccc(F)cc1)N(C(=O)CN1C[C@@H](C)NC[C@@H]1CN1CCOC[C@H]1C)CC2(C)C (single isomer, unassigned) [Example 26, 1-{6-[(4-Fluorophenyl)methyl]-5-((R or S)-1-hydroxy-2-methoxyethyl)-3,3-dimethyl-1H,2H,3H-pyrrolo[3,2-b]pyridin-1-yl}-2-[(2R,5R)-5-methyl-2-{[(3R)-3-methylmorpholin-4-yl]methyl}piperazin-1-yl] ethan-1-one trihydrochloride]
EC50 [2]: 12 nM
hERG PPC (PI) ([3]; @ 31.3 μM): 41% @ 31.3

C[C@@H]1CN(CC(=O)N2CC(C)(C)c3[nH]c(=O)c(Cc4ccc(F)cc4F)cc32)[C@@H](CN2CCOC[C@H]2C)CN1 [Example 8, 6-[(2,4-Difluorophenyl)methyl]-3,3-dimethyl-1-{2-[(2R,5R)-5-methyl-2-{[(3R)-3-methylmorpholin-4-yl]methyl}piperazin-1-yl]acetyl}-1H,2H,3H,4H,5H-pyrrolo[3,2-b]pyridin-5-one dihydrochloride]
EC50 [2]: 5.4 nM
hERG PPC (PI) ([3]; @ 300 μM): 39% @ 300

CCCCc1cc2c(n(N)c1=O)C(C)(C)CN2C(=O)CN1C[C@@H](C)NC[C@@H]1CN1[C@H](C)COC[C@H]1C [Example 30, 4-Amino-6-butyl-1-{2-[(2R,5R)-2-{[(3R,5R)-3,5-dimethylmorpholin-4-yl]methyl}-5-methylpiperazin-1-yl]acetyl}-3,3-dimethyl-1H,2H,3H,4H,5H-pyrrolo[3,2-b]pyridin-5-one dihydrochloride]
EC50 [2]: 1.2 nM and 1.4 nM
IC50 [3]: 230000 nM

C[C@@H]1CN(CC(=O)N2CC(C)(C)c3nc(C(O)CO)c(Cc4ccc(F)cc4)cc32)[C@@H](CN2CCOC[C@H]2C)CN1 (single isomer, unassigned) [Example 13, 1-[5-((R or S)-1,2-Dihydroxyethyl)-6-[(4-fluorophenyl)methyl]-3,3-dimethyl-1H,2H,3H-pyrrolo [3,2-b]pyridin-1-yl]-2-[(2R,5R)-5-methyl-2-{[(3R)-3-methylmorpholin-4-yl]methyl}piperazin-1-yl] ethan-1-one dihydrochloride]
EC50 [2]: 4.4 nM
hERG PPC (PI) ([3]; @ 300 μM, dihydrochloride): 46% @ 300

CCCCc1cc2c([nH]c1=O)C(C)(C)CN2C(=O)CN1C[C@@H](C)NC[C@@H]1CN1[C@H](C)COC[C@H]1C [Example 32, 6-Butyl-1-{2-[(2R,5R)-2-{[(3R,5R)-3,5-dimethylmorpholin-4-yl]methyl}-5-methylpiperazin-1-yl]acetyl}-3,3-dimethyl-1H,2H,3H,4H,5H-pyrrolo[3,2-b]pyridin-5-one dihydrochloride]
EC50 [2]: 1.5 nM
hERG PPC (PI) ([3]; @ 500 μM): 55% @ 500

COCC(O)c1nc2c(cc1Cc1ccc(F)cc1)N(C(=O)CN1C[C@@H](C)NC[C@@H]1CN1CCOC[C@H]1C)CC2(C)C (single isomer, unassigned) [Example 28, 1-{6-[(4-Fluorophenyl)methyl]-5-((R or S)-1-hydroxy-2-methoxyethyl)-3,3-dimethyl-1H,2H,3H-pyrrolo[3,2-b]pyridin-1-yl}-2-[(2R,5R)-5-methyl-2-{[(3R)-3-methylmorpholin-4-yl]methyl}piperazin-1-yl] ethan-1-one trihydrochloride]
EC50 [2]: 4.4 nM
hERG PPC (PI) ([3]; @ 125 μM): 45% @ 125

C[C@@H]1CN(CC(=O)N2CC(C)(C)c3nc(C(O)CO)c(Cc4ccc(F)cc4)cc32)[C@@H](CN2CCOC[C@H]2C)CN1 (single isomer, unassigned) [Example 14, 1-[5-((R or S)-1,2-Dihydroxyethyl)-6-[(4-fluorophenyl)methyl]-3,3-dimethyl-1H,2H,3H-pyrrolo [3,2-b]pyridin-1-yl]-2-[(2R,5R)-5-methyl-2-{[(3R)-3-methylmorpholin-4-yl]methyl}piperazin-1-yl] ethan-1-one dihydrochloride]
EC50 [2]: 13 nM
hERG PPC (PI) ([3]; @ 300 μM, dihydrochloride): 58% @ 300

COC(CO)c1nc2c(cc1Cc1ccc(F)cc1)N(C(=O)CN1C[C@@H](C)NC[C@@H]1CN1CCOC[C@H]1C)CC2(C)C (single isomer, unassigned) [Example 29, 1-{6-[(4-Fluorophenyl)methyl]-5-((R or S)-2-hydroxy-1-methoxyethyl)-3,3-dimethyl-1H,2H,3H-pyrrolo[3,2-b]pyridin-1-yl}-2-[(2R,5R)-5-methyl-2-{[(3R)-3-methylmorpholin-4-yl]methyl}piperazin-1-yl] ethan-1-one]
EC50 [2]: 13 nM
hERG PPC (PI) ([3]; @ 500 μM): 53% @ 500
